Patent publication US20230265481A1, “METHOD FOR MEASURING THE PROTEASE ACTIVITY OF C3 AND C5 CONVERTASE OF THE ALTERNATIVE COMPLEMENT PATHWAY” (Alexion Pharmaceuticals, Inc., priority 2015, published 2023)

Tests used:
[1] = target: T1, Factor D (Homo sapiens, UniProt P00746); test: BLI biosensor assay of Factor D cleavage of Factor B, anti-Bb antibody binding; format: biochemical
T1 construct: purchased Comptech (Tyler TX)

[2] = test system: C5 convertase; test: C5 convertase activity on bio-C3b streptavidin-coated spheres, C5a measured with MSD (ECL) assay; format: biochemical; conditions: for ECL signal (amount of C5a produced by C5 convertase): C5 100 nM, 60 minutes
Description: The bio-C3b binding to streptavidin was performed in a 2.0 ml micro-centrifuge tube. Two hundred and forty […] of Spherotech beads, […] diameter, streptavidin coated spheres were first washed by centrifugation with 300 μL of 10 mM Tris, pH 8, and then resuspended in 200 μL of 10 mM Tris, pH 8. The spheres were incubated with bio-C3b or C3b at a concentration of 320 nM. Spheres were suspended by gentle shaking at 1350 RPM for 20 minutes at room temperature, and collected by centrifugation at 16 RCF for 10 minutes. The residual supernatant was removed and the beads are then washed to remove residual unbound bio-C3b.
C5 convertase was formed on the spheres by incubating the bio-C3b spheres with a Convertase Solution that included components of the AP, a divalent cation and buffer. The Convertase Solution consisted of Factor D, (10 nM), Factor B (400 nM), and NiCl2 (200 μM) in 10 mM Tris, pH 8.0. The spheres were suspended by gentle shaking at 1350 RPM for 20 minutes at 37° C. The spheres were centrifuged at 16×g (RCF) for 10 minutes, the supernatant is removed, and the spheres are resuspended in 1.2 ml of 10 mM Tris pH 8, 1 mM EDTA to a final concentration of 200 μg/ml.
Formation of C5a was accomplished by incubating C5, and the spheres in a Reaction Solution that included a divalent cation. The Reaction Solution was prepared by transferring to a microplate well: (i) […] of spheres with C5 convertase in 10 μl of the Convertase Solution; (ii) […] of a 500 μM NiCl2 solution; and (iii) […] of a 250 nM solution of C5 (5 pmoles). […]
Following the incubation, the reaction was stopped by adding 10 μL of a 500 mM EDTA in 10 mM Tris, pH=8.0. (Total Volume=60 μl)
The amount of C5a in the Reaction Solution was measured with an MSD assay, similar to an ELISA. The neo-epitope anti-C5a antibody, BNJ383, captured soluble C5a, binding it to a well in a microplate. BNJN383 has a high affinity for C5a but a low affinity for C5. The detection reagent was a mouse anti-C5a antibody that binds the C5a captured on the plate, and a SULFO-TAG™ modified anti-mouse secondary antibody that bound the mouse antibody, and generated an ECL signal.
To wells of a high binding 96-well microplate (MSD Catalog No. L15XB-3) was added BNJ383 (0.3 pmoles,)[…]/mL in 25 μL of a carbonate-bicarbonate buffer at pH 9.4. The microplate was sealed and incubated at 37° C. for 60 minutes. […]
The wells were sealed with a foil seal and incubated in the dark for 30 minutes. […] One hundred and fifty μL of 2X MSD Read Buffer containing tripropylamine as an electron carrier was added to the wells using a negative pipetting technique. The microplate was read on an MSD imager to measure the ECL signal generated by the SULFO-TAG™ affixed to the goat secondary antibody. […]

T1 sequence (P00746 26-253): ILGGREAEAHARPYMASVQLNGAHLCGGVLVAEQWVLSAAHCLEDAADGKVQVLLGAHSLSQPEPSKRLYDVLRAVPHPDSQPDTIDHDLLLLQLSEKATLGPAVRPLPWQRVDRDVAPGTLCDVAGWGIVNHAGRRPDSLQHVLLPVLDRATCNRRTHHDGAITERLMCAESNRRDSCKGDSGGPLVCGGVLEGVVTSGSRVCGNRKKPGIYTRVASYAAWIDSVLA

Effect on Factor D activity ([1]; DCIC 23 μM and 35 μM) | Effect on Factor D activity ([1]; DCIC 178 μM, 267 μM and 400 μM) | Compound | Effect on convertase activity ([2]; OmCI 50 nM) | ECL signal (amount of C5a produced by C5 convertase) ([2]; OmCI 50 nM) | drop of ECL signal ([2]; OmCI 100 nM) | ECL signal (amount of C5a produced by C5 convertase) ([2]; OmCI 100 nM)
minimal effect | maximally inhibited | O=c1oc(Cl)c(Cl)c2ccccc12 [DCIC, 3,4-Dichloroisocoumarin] |  |  |  | 
 |  | OmCI: tick saliva complement inhibitor, a C5 binding protein that reduces access of the C5 convertase to the C5 cleavage site | essentially no effect | 40,000 | 8 fold | 5000
